According to US8557737B2, “Methods of altering poppy characteristics” (priority 2005, dated 2013):
Where two headings read alike, the source gives them in different places.

Assays:
poppy crops [1] = assay: Example 10: field trial, triasulfuron and metsulfuron-methyl, morphine crop; type: in vivo, Papaver somniferum; settings: COMPOUND 1 120 MG/HA + PULSE .2 % V/V at GC, RU and BE
Experimental: All trials were conducted on poppy crops. Seed was treated with Thiram (5.6 g of Thiram 800/kg seed) and Apron (4 g/kg) and sown at a rate of approximately 750 g/ha. Fertilisers were applied at sowing. Most commonly, either 50:50 lime:superphosphate/triple superphosphate at 125 kg/ha, or lime:superphosphate at 250 kg/ha, were mixed with seed and drilled at a depth of 15 mm. In the same operation, NPK (nitrogen:phosphorus:potassium), at various rates, was banded 75 mm below the seed, unless otherwise stated. All crops were subjected to herbicide sprays for weed control, fungicide sprays for disease control, insecticide sprays if appropriate and were irrigated as required.
All spray applications were made with a precision sprayer, using Silvan Lurmark flat-fan, low-drift nozzles (LD110-0015). Spray equipment was calibrated to deliver 153 L water/ha.
At harvest, a 2 m×4 m quadrat was placed in each plot (3 m×6 m, unless otherwise stated) and capsules hand-picked from this area. Capsules were broken up, seed and capsule material separated and weighed. Capsule moisture readings were taken with a moisture meter. Alkaloid yield data were calculated on Pesticide Research Manager (version 5 for Windows) using the formulae below. Briefly, capsule weight was adjusted for moisture to a dry weight, 5% of seed weight was added to this (this amount of capsule material regularly occurs in seed samples after processing) to give a capsule weight per plot. Seed weight was adjusted to 95% of crude weight. Straw weights were determined by multiplying dry capsule weight by 1.3 (estimated amount of stem material in a commercial harvest) and adjusted to 11% moisture. When Lontrel was applied to crops exact capsule and seed weight data were entered. Analyses of variance and a Multiple Range Test were performed on data using Pesticide Research Manager. Significant differences (P=0.05) between treatments are denoted by different lower case letters adjacent to treatment means in the tables of results.
[…] Treatment sprays were applied to crop at ground cover, mid run-up and bud-emergence, respectively.

poppy crops [2] = system: poppy crops; parameters: species or system Papaver somniferum; settings: in vivo

COC(=O)c1ccccc1S(=O)(=O)NC(=O)Nc1nc(C)nc(OC)n1 [Compound 1, metsulfuron-methyl]
CAPSULE/SEED RATIO (poppy crops [1]): 11.957 a
CROP WEIGHT (poppy crops [1]): 1.86 a t/ha
HEIGHT (poppy crops [1]): 84.2 b cm
MORPHINE (poppy crops [1]): 39.63 a kg/ha
SEED (poppy crops [1]): 105 c kg/ha
STRAW (poppy crops [1]): 1757 a kg/ha
STRAW MORPHINE (poppy crops [1]): 2.25 a %
CAPSULE/SEED RATIO (poppy crops [2]): 0.883 a
MORPHINE (poppy crops [2]): 26.32 c kg/ha
PLANT HEIGHT (poppy crops [2]): 67 c cm
SEED (poppy crops [2]): 1015 b kg/ha
STRAW (poppy crops [2]): 1255 c kg/ha
STRAW MORPHINE (poppy crops [2]): 2.09 b %
YIELD (poppy crops [2]): 2.27 c t/ha
